Columns and labels:
TGF-beta receptor type-1 = target: T1, TGF-beta receptor type-1 (Homo sapiens, UniProt P36897); assay: Displacement of Alexa Fluor labeled tracer 178 from ALK5 (unknown origin) using anti-GST antibody incubated for 60 mins by TR-FRET based LanthaScreen Eu-Kinase binding assay
T1 sequence (P36897 whole entry): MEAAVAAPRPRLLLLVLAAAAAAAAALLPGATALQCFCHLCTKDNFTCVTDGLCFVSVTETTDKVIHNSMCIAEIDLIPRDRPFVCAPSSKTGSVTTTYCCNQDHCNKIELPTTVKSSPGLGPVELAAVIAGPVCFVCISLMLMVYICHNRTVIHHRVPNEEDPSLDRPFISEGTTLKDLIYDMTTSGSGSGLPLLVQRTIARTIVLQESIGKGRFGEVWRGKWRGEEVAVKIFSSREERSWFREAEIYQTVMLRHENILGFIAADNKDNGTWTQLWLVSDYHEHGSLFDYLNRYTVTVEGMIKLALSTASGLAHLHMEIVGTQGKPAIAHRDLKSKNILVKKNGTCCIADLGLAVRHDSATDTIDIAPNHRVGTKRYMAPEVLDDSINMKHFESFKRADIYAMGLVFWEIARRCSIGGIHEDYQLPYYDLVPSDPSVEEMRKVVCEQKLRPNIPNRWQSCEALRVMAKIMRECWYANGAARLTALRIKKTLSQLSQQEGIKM

Homo sapiens = organism: Homo sapiens; assay: Selectivity ratio of IC50 for ALK2 (unknown origin) to IC50 for ALK5 (unknown origin)
[1] = target: T2, TGF-beta receptor type-1 (Homo sapiens) (UniProt P36897); assay: Inhibition of TGF-beta receptor 1 in human RD cells transfected with Smad reporter plasmid by reporter gene based One-Glo luciferase assay; assay type: cell-based
T2 sequence (whole entry): T1 sequence (P36897 whole entry)

Row | SMILES | IC50 (TGF-beta receptor type-1) | Ratio IC50 (Homo sapiens) | INH [1]
1 | Cc1cccc2c(Nc3nc(Nc4cc(CN5CCNCC5)ccc4F)ncc3F)cnnc12 | 10 nM | > 10 | < 1000 nM
2 | Cc1cccc2c(Nc3ccnc(Nc4cc(CN5CCNCC5)ccc4F)n3)cnnc12 | ≤ 10 nM | 10 | < 1000 nM
3 | Cc1cc(F)cc2c(Nc3ccnc(Nc4ccc(N5CCN(C)CC5)cc4)n3)cnnc12 | ≤ 10 nM | 10 | < 100 nM
4 | Cc1cccc2c(Nc3ccnc(Nc4ccc(N5CCOCC5)c(Cl)c4)n3)cnnc12 | ≤ 10 nM | 10 | < 100 nM
5 | Cc1c(F)ccc2c(Nc3ccnc(Nc4ccc(N5CCN(C)CC5)cc4)n3)cnnc12 | ≤ 10 nM | 10 | < 100 nM
6 | Cc1cccc2c(Nc3ccnc(Nc4cccc(N5CCOCC5)c4)n3)cnnc12 | ≤ 10 nM | 10 | < 100 nM
7 | Cc1cccc2c(Nc3ccnc(Nc4ccc(N5CCOCC5)cc4)n3)cnnc12 | ≤ 10 nM | 10 | < 100 nM
8 | Cc1cccc2c(Nc3ccnc(Nc4cc(F)cc(CN5CCNCC5)c4)n3)cnnc12 | ≤ 10 nM | > 10 | < 100 nM
9 | Cc1cccc2c(Nc3ccnc(Nc4ccc(CC5CCNCC5)cc4)n3)cnnc12 | < 1000 nM | 10 | < 1000 nM
10 | Cc1c(F)ccc2c(Nc3ccnc(Nc4ccc(N5CCNCC5)cc4)n3)cnnc12 | ≤ 10 nM | 10 | < 100 nM
11 | Cc1cccc2c(Nc3ccnc(Nc4ccc(N5CCNCC5)c(F)c4)n3)cnnc12 | ≤ 10 nM | 10 | < 100 nM
12 | Cc1cccc2c(Nc3ccnc(Nc4cccc(CN5CCN(C)CC5)c4)n3)cnnc12 | ≤ 10 nM | > 10 | < 100 nM

Reference: ChEMBL document CHEMBL5126651, “ALK Inhibitors for Treating Cancer, Blood, and Kidney Diseases” (ACS Med Chem Lett, 2022)
